Read-outs that look alike come from different tables or passages of the source.

Here are results for four compounds from patent US20230173064A1, “DETOXIFIED LIPOPOLYSACCHARIDES (LPS), NATURALLY NON-TOXIC LPS, AND USES THEREOF” (priority 2020, published 2023).

In data set [1] the test system is human B-lymphoma tumor model (RL cells) in CB17-SCID mice. The data set can be described thus: Tumor rejection assay, therapeutic setting, human B-lymphoma RL cells engrafted in CB17-SCID mice. In kind it is in vivo, mouse. The conditions noted are these: for growth of established RL tumor cells: once a week for 3 weeks, LPS 0.5 mg/kg i.v., GLA 0.5 mg/kg, rituximab 30 mg/kg i.p., vs non-treated mice. The method, then:
The therapeutic efficacy of native (LPS B2 0.0 and LPS W1 0.0) and modified (LPS B2 0.1 and LPS B2 1.1) LPS, alone or in combination with rituximab, was analyzed in vivo against a human B-lymphoma tumor model (RL cells) using tumor rejection assays with a therapeutic setting in mice.
Cohort of CB17-SCID mice were engrafted subcutaneously in the abdominal right flank with 5×10^6 human B-lymphoma cells (RL cells). When the tumor volume had reached 100 mm^3 (at day 20), mice were randomized (n=6 mice/group), and the first treatment was administered.
(§1) Mice were treated once a week for 3 weeks (at days 20, 27 and 34) with LPS B2 0.0, LPS B2 0.1, LPS B2 1.1 or LPS W1 0.0, used alone or in combination with rituximab (Genentech), an anti-human CD20 mAb.
(§2) Groups of mice treated with GLA (Merck/Immune Design Corp.) administered either intravenously or intraperitoneally at 0.5 mg/kg, alone or in combination with rituximab, were included for comparison.
(§3) LPS B2 0.0, LPS B2 0.1, LPS B2 1.1 or LPS W1 0.0 were administered intravenously at a dose of 0.5 mg/kg. Rituximab was administered intraperitoneally at a dose of 30 mg/kg.
Tumor-bearing mice injected with PBS (control) or rituximab alone were used as controls.
The tumor volume was measured twice a week (length x width) with a caliper. The tumor volume was determined using the formula: […]

The nature of data set [2]: Dynamic Light Scattering (DLS) aggregate size analysis in water and PBS suspensions. The format is physicochemical. Particulars: for average particle size: 0.2 mg/mL, DLS at 25° C., average of triplicate. The method, then: Determination of aggregates sizes of LPS B2 0.0, LPS B2 0.1, LPS B2 1.1 and of synthetic GLA (PHAD®, from Avanti® Polar Lipids, Inc.) in aqueous and PBS suspensions was determined by Dynamic Light Scattering (DLS) using the Malvern Instruments Zetasizer Nano S90 with a scattering angle Θ=90°, incident laser wavelength λ=633 nm and temperature at 25° C.
Samples for measurements were prepared as follows: 200 μg of dry samples in 4 mL glass vials were suspended in 1 mL of water or PBS. LONZA LAL Reagent water and Gibco PBS pH 7.4 (without CaCl2 or MgCl2) were used. The solvents were added progressively (250 μL plus 250 μL plus 500 μL). Three homogenization cycles were applied after each addition of a solvent, consisting in a 10-second sonication in a Fisher Scientific FB 15050 ultrasonic bath and 5 seconds vigorous vortex agitation.
800 μL of each suspension were transferred to a disposable Eppendorf polystyrene semi-micro cuvette and DLS measurements were performed three times.
LPS SM1 V1 was diluted in PBS pH 7.5 at 50 nmol/mL, and filtered through a 200-nm filter to remove large debris and aggregates. No nucleic acid contaminants and 2-4 μg/mL of protein contaminants were measured in the sample.

The next data set concerns CB17-SCID mice. The data set can be described thus: Tolerance of intravenous injection in tumor-bearing CB17-SCID mice. The format is in vivo, mouse. The conditions noted are these: 0.5 mg/kg intravenously. The method, then: as §1, §2, §3
The subject of a further data set is human PBMC (CryoBlood). The conditions noted are these: literature / vendor values; cited from earlier work.
Data set [3] has as its system rabbits. The data set can be described thus: Rabbit Pyrogen Test (RPT), Ph. Eur. 5.1.10. In kind it is in vivo. Particulars: intravenous, sum of temperature rises of 3 rabbits not above 1.15° C. The method, then:
Standardized Rabbit Pyrogen Test (RPT) were conducted according to European Pharmacopeia (Ph. Eur. 5.1.10). Product tested includes the naturally-occurring LPS B2 0.0 and LPS W1 0.0 and modified LPS B2 0.1, LPS B2 1.1 and LPS B2 1.2, as well as a non-GMP equivalent of the GLA from Merck (Avanti Polar Lipids).
Briefly, groups of three rabbits, weighing 2.5 to 3 kg received one intravenous injection of the tested product in 1 mL/kg of body weight.
For each candidate, several dose ranges were tested from 0.1 to 1000 ng/kg. For each animal, the baseline rectal temperature was recorded. After 30 minutes, the rabbits were inoculated in the ear vein. Temperatures were recorded every 6.5 minutes for 3 hours. The rising temperature of the rabbit body temperature is that the highest body temperature measure within the 3 hours, minus the normal body temperature.
Several doses of each candidates were tested to define their MNPD corresponding to the highest dose of a given product that can be administered in rabbits without inducing febrile reaction.
The pyrogenic activity of modified LPS B2 1.2 and LPS B2 1.3 was evaluated in vivo using the rabbit pyrogen test (RPT), as described in section 5.1.10 of the European Pharmacopeia. Both LPS were administered at the same dose of 450 ng/kg. Two experiments were performed for each modified LPS, with 3 rabbits/experiment (A1, A2 and A3).

For data set [4], the system named is rabbits. Particulars: literature values; cited from earlier work.
Data set [5] relates to Osa tumor cells in Sprague-Dawley (SD) rats. The data set can be described thus: Tumor rejection assay, orthotopic rat model of osteosarcoma (Osa). In kind it is in vivo. The method, then: The therapeutic efficacy of the modified LPS B2 1.3 was analyzed in vivo against an orthotopic rat model of osteosarcoma (Osa) using tumor rejection assays with a therapeutic setting.
Sprague-Dawley (SD) rats were engrafted with Osa tumor cells in a paratibial position (left posterior tibia) after a periosteal abrasion. When tumors reached an average tumor volume of 150 mm^3, rats (n=3 to 8/group) were randomized into LPS B2 1.3, Doxorubicin (Doxo), or PBS (Control) groups.
LPS B2 1.3 was administered intravenously into the tail vein, twice a week for 2 weeks at 0.25 mg/kg.
Doxorubicin was administered intraperitoneally twice a week for 2 weeks at 1 mg/kg.
Tumor growth and survival were monitored twice a week. Tumor volumes V were assessed according to the following formula: […]
with L the longest and C the shortest tumor diameter.

On to `CCCCCCCCCCCCCC(=O)O[C@H](CCCCCCCCCCC)CC(=O)O[C@@H]1[C@@H](NC(=O)C[C@H](CCCCCCCCCCC)OC(=O)CCCCCCCCCCCCC)[C@H](OC[C@H]2O[C@H](O)[C@H](NC(=O)C[C@H](O)CCCCCCCCCCC)[C@@H](OC(=O)C[C@H](O)CCCCCCCCCCC)[C@@H]2O)O[C@H](CO)[C@H]1OP(=O)(O)O` [GLA, glucopyranosyl lipid A], for which, in data set [1] (GLA 0.5 mg/kg injected intraperitoneally in combination with rituximab), the complete tumor regression is 50%. Moreover, in data set [1] (single agent), the “growth of established RL tumor cells” value is given as “did not show any impairment”. Moreover, the average particle size result in data set [2] (in PBS) is “about 529 nm”. Also, in data set [2] (in water), the DLS profile entry is listed as “monodisperse” and the average particle size entry is recorded as “about 544 nm”. Also, the “size of nano-particles / aggregates” value in data set [2] (in water or PBS) is listed as greater than 500 nm. In addition, the solubility / dispersibility entry in data set [2] (in water or PBS, without dispersing reagents or special treatment) is on record as “precipitates”. For the same compound, the “appearance of the final 0.2 mg/mL suspensions” value in data set [2] (in water or in PBS) is reported as “slightly opaque but homogeneous”. Besides, the “altered aspect and behavior (toxicity) after intravenous administration” value in the data set on CB17-SCID mice is “had to be euthanized”. Besides, in the data set on human PBMC (CryoBlood), the “MAT (pyrogenicity as described in the literature)” value is listed as 15700^2 EEU/μg. In addition, the “MNPD (maximum non-pyrogenic dose)” value in the data set on rabbits [3] is 0.034 µg/kg.

On to `CCCCCCCCCCC[C@H](CC(=O)N[C@H]1[C@H](OC[C@H](NC(=O)C[C@@H](CCCCCCCCCCC)OCCCCCCCCCC)C(=O)O)O[C@H](CO)[C@@H](OP(=O)(O)O)[C@@H]1OC(=O)C[C@@H](CCCCCCCCCCC)OCCCCCCCCCC)OCCCCCCCCCC` [GSK1795-091], for which the “MNPD (maximum non-pyrogenic dose)” value in the data set with rabbits [4] is 0.0025 µg/kg.

As for `COc1cccc2c1C(=O)c1c(O)c3c(c(O)c1C2=O)C[C@@](O)(C(=O)CO)C[C@@H]3O[C@H]1C[C@H](N)[C@H](O)[C@H](C)O1` [doxorubicin], in data set [5] (LPS B2 1.3 0.25 mg/kg i.v., doxorubicin 1 mg/kg i.p., twice a week for 2 weeks, vs PBS (and doxorubicin)), the “growth of established Osa tumor cells” value is given as “No significant difference in tumor growth”. For the same compound, in data set [5] (day 31), the “animals alive (survival)” value was determined as 40% and the “complete tumor regressions (complete responses)” value is given as “no tumor regressions”.

On to “rituximab: an anti-CD20 monoclonal antibody (Genentech)”, for which the complete tumor regression in data set [1] (single agent, D54 post-tumor challenge) was 17%. Further, the “growth of established RL tumor cells” value in data set [1] (single agent) is on record as “significantly impair the growth”.
